Data taken from patent US8278309B2, “Synthetic mimetics of host defense and uses thereof” (priority 2008, dated 2012).
Counter-ions that a name gives are not always drawn. Like-named read-outs stand apart in the source and are kept apart here.

How the values were obtained:
Acinetobacter spp. = assay: MIC broth microdilution, Gram-negative clinical isolates; assay type: cell-based; conditions: 2-3 isolates/organism
Method: (§1) Compound A was evaluated in vitro in accordance with defined CLSI documents specific to the organisms (aerobic, anaerobic or yeast) tested in this study. Ampicillin, ceftazidime, cefuroxime, ciprofloxacin, linezolid, and vancomycin were tested alongside as comparator agents for aerobic bacteria; clindamycin and metronidazole were tested as comparators for anaerobes; fluconazole was tested as a comparator for yeast isolates. Stock solutions of Compound A were prepared in dimethyl sulfoxide (DMSO). Ampicillin, ceftazidime, cefuroxime, ciprofloxacin, linezolid, vancomycin, metronidazole, clindamycin, and fluconazole were prepared each according to its manufacturer's guideline.
(§2) Minimum inhibitory concentrations (MICs) in μg/ml were determined according to CLSI guideline M7-A7 by broth microdilution. All aerobes were tested using Mueller-Hinton broth medium with the exception of Streptococcus spp., which were tested using cation-adjusted Mueller-Hinton broth supplemented with 2-5% lysed horse blood.

Citrobacter freundi = assay: as above; assay type: cell-based; conditions: Citrobacter freundi; 2-3 isolates/organism; read-out: MIC
Method: as §1, §2

Citrobacter koseri = assay: as above; assay type: cell-based; conditions: 2-3 isolates/organism, read-out: MIC
Method: as §1, §2

Enterobacter cloacae = assay: as above; assay type: cell-based; conditions: 2-3 isolates/organism, read-out: MIC
Method: as §1, §2

Escherichia coli = assay: as above; assay type: cell-based; conditions: 2-3 isolates/organism, read-out: MIC
Method: as §1, §2

Haemophilus influenzae = assay: as above; assay type: cell-based; conditions: 2-3 isolates/organism, read-out: MIC
Method: as §1, §2

Klebsiella oxytoca = assay: as above; assay type: cell-based; conditions: 2-3 isolates/organism, read-out: MIC
Method: as §1, §2

Klebsiella pneumoniae = assay: as above; assay type: cell-based; conditions: 2-3 isolates/organism, read-out: MIC
Method: as §1, §2

Providencia stuartii = assay: as above; assay type: cell-based; conditions: 2-3 isolates/organism, read-out: MIC
Method: as §1, §2

[1] = Cytotoxicity colorimetric assay, HepG2; assay type: cell-based, human; conditions: human, HepG2 cells; one hour in serum-free media
Method: (§3) This assay measures the bioreduction of a novel tetrazolium compound to a soluble formazan product by viable cells. HepG2 cells were seeded in 96 well plates at 2×10^4 cells/well in MEM medium with 10% fetal bovine serum (FBS) 24 hours prior to use. NIH/3T3 cells were seeded in 96 well plates at 2×10^4 cells/well in DMEM medium with 10% bovine calf serum (BCS) 24 hours prior to use. […] After incubation, the media was replaced with serum supplemented media and live cells were measured using the Cell Titer 96 Aqueous Non-Proliferation Assay kit (Promega, Madison, Wis.). EC50 values were determined using a four parameter logistic equation: Y=Bottom+(Top-Bottom)/(1+10^((LogEC50−X)*HillSlope)).

HepG2 = assay: Cytotoxicity colorimetric assay, HepG2; assay type: cell-based, human; conditions: vs S. aureus MIC
Method: as §3

[2] = In vitro metabolic stability, blood plasma (data not shown); assay type: in vitro ADME
Method: Pooled plasma samples from human (mixed gender), rat (mixed breed and gender) and dog (mixed breed and gender) were incubated with Compound A (5 μM) at 37° C. for 0 and 60 minutes (duplicate samples). Incubations were terminated by addition of ice-cold precipitation solvent (acetonitrile:glacial acetic acid, 9:1 v/v). Supernatants were diluted with equal volume of 0.1% formic acid and analyzed by HPLC-MS/MS. Plasma stability is reported as % parent compound at 60 minutes relative to amount of parent at 0 minutes.

S. aureus (ATCC 13709) = assay: Mouse sepsis model, S. aureus infection; assay type: in vivo; conditions: for protection from mortality: 1 & 7 hr after inoculation, observed 6 days
Method: Sterile saline, vancomycin, or Compound A were administered to separate groups of 8-week old female CD-1 mice (8 mice/group) 1 and 7 hours after i.p. injections of S. aureus (ATCC 13709, 5×10^7 cfu/mL in 5% mucin, 0.5 mL/mouse). Compound A was dissolved in 50%/50% v/v sterile USP purified water/TBS. A suspension of S. aureus was prepared from colonies transferred from the TSA plate to sterile PBS. An aliquot of the stock suspension was added to 5% mucin for a final concentration of about 5×10^7 cfu/mL.

Pharmacokinetics in rats = assay type: in vivo; conditions: Crl:CD (SD), plasma, iv; rat, 5 mg/kg, i.v. bolus
Method: Crl:CD (SD) rats were administered Compound A by i.v. bolus injection at the indicated dosages. Plasma was prepared from blood samples taken at 9 time points (n=3) over 28 hours. Compound levels were determine by HPLC-MS/MS. All animals were fitted with two jugular vein cannula (JVC), one each for dose administration and blood collection. Each route of administration was dosed as N=3. Animals were supplied with a commercial rodent diet and water ad libitum. Each rat received a bolus dosed via the appropriate route of administration at time zero on the day of dosing.
Each blood sample was collected from the rats via a JVC and placed into chilled polypropylene tubes containing sodium EDTA as an anticoagulant. Samples were centrifuged at a temperature of 4° C. and at a speed of 13,000 rpm for 5 minutes. Samples were maintained chilled throughout processing. Each plasma sample was then transferred into labeled polypropylene tubes, placed on dry ice, and stored in a freezer set to maintain −60° C. to −80° C.
Plasma study samples were extracted and analyzed using a previously developed method. A single standard curve and six replicates of quality control samples at three concentrations were extracted using DMSO containing 0.1% formic acid. Plasma samples (50 μL) were added to 150 μL solvent and centrifuged. Supernatants were analyzed by LC/MSMS using a Perkin Elmer series 200 micropump and PE Sciex API4000 Electrospray mass spectrometer. Standard curves were prepared at concentrations of 10000, 5000, 1000, 500, 250, 100, 50 and 25 ng/mL. Quality control samples were prepared at concentrations of 5000, 500, and 50 ng/mL. The standard curve and quality control samples were prepared from independently prepared stock solutions. At least ⅝ of standards must have accuracy within ±15%, except at the LLOQ where ±20% is acceptable. Two thirds of the batch QCs must have accuracy within ±15% of nominal, and at least one QC must pass at each level in order for the run to be accepted.
Individual plasma concentration versus time data for Compound A was subjected to non-compartmental analysis using the pharmacokinetic program WinNonlin v4.1. Plasma concentrations below the limit of quantitation (25 ng/ml) were assigned a value of zero for pharmacokinetic analysis. Nominal dosing concentrations were used in all calculations.

[3] = rat, in vivo, iv
Method: (§4) Maximum tolerated dose (MTD) determinations were made in ascending/descending dose studies in mice and rats. Compound A was administered by either i.v. bolus injection in the tail vein of mice and rats or by i.v. infusion via catheter in the femoral vein of rats. At each dose, two to three animals were administered compound and clinical signs were recorded over a 4 to 7 day period. Gross necropsy was performed at the conclusion of the study.

in vivo = conditions: mouse, iv
Method: as §4

SMILES: N=C(N)NCCCCC(=O)Nc1cc(C(F)(F)F)cc(NC(=O)c2cc(C(=O)Nc3cc(C(F)(F)F)cc(NC(=O)CCCCNC(=N)N)c3O[C@H]3CCNC3)ncn2)c1O[C@H]1CCNC1 [Compound A, pyrimidine-4,6-dicarboxylic acid bis-{[3-(5-guanidino-pentanoylamino)-2-((R)-pyrrolidin-3-yloxy)-5-trifluoromethyl-phenyl]-amide}tetrahydrochloride]
- MIC (Acinetobacter spp.): 4 µg/mL
- MIC (Citrobacter freundi): 2 to 4 µg/mL
- MIC (Citrobacter koseri): 1 to 2 µg/mL
- MIC (Enterobacter cloacae): 0.5 to 4 µg/mL
- MIC (Escherichia coli): 1 to 2 µg/mL
- MIC (Haemophilus influenzae): 4 to 8 µg/mL
- MIC (Klebsiella oxytoca): 2 to 8 µg/mL
- MIC (Klebsiella pneumoniae): 1 to 2 µg/mL
- MIC (Providencia stuartii): 16 to 64 µg/mL
- EC50 at 1 h [1]: 1030 µg/mL
- Selectivity (EC50/MIC) HepG2 (HepG2): 1,031
- loss of compound in plasma ([2]; cynomolgus monkeys): little to no loss
- loss of compound in plasma ([2]; rabbits): little to no loss
- protection from mortality (S. aureus (ATCC 13709); 2×5 mg/kg i.v.): full protection
- protection from mortality (S. aureus (ATCC 13709); 2×10 mg/kg i.v.): full protection
- efficacy relative to vancomycin treatment group (S. aureus (ATCC 13709); 3, 5, 10 mg/kg/dose i.v.): comparable to the vancomycin treatment group
- Cmax (Pharmacokinetics in rats): 89.2 µg/mL
- Vd (Pharmacokinetics in rats): 0.11 L/kg
- clearance (Pharmacokinetics in rats): 0.467 mL/min/kg
- half-life (Pharmacokinetics in rats): 3 h
- MTD [3]: >24 mg/kg
- MTD (in vivo): 30 mg/kg
